The source of these data is US20240316008A1, “TREATMENT OF SYSTEMIC IMMUNE ACTIVATION SYNDROMES” (TRANQUIS THERAPEUTICS, INC., priority 2020, published 2024).

Counter-ions that a name gives are not always drawn.

One assay has as its system ALS. The conditions noted are these: transgenic mouse model of ALS; cited from earlier work.
For the next assay, the system named is IL-6. Kind of assay: IL-6 secretion from LPS-stimulated BV2 cells (ELISA). It counts as cell-based, murine. The conditions noted are these: BV-2 cells, concentration-response. As to the method: [1] First, 100 μl of supernatant from cell plate was removed and transferred to a dilution plate, followed by centrifugation of the dilution plate at 216×g for 10 minutes to remove particulates. The dilution plate was then either assayed immediately or aliquots were taken and stored at ≤−20° C.; repeated freeze-thaw cycles should be avoided. Mouse IL-6 Standard (500 pg/mL) served as the high standard, and the Calibrator Diluent RD5T served as the zero standard at 0 pg/ml. Assay Diluent RD1-14 (50 μl) was then added to the center of each well and mixed before and during its use. Then, 50 μl of standard, control, or sample was added to the center of each well, and covered with adhesive strip. The plate was then mixed for 1 minute and incubated for 2 hours at room temperature. Each well was then aspirated and washed by filling each well with wash buffer (400 ul) five times. After the last wash, the remaining Wash Buffer was removed by aspirating or decanting. Mouse IL-6 conjugate (100 ul) was then added to each well, covered with adhesive strip, incubated for 2 hours at room temperature, and washed and/or aspirated five times.
Substrate solution (100 ul) was then added to each well, incubated in the dark for 30 minutes at room temperature, followed by addition of 100 ul of Stop Solution and mixed. The optical density of each well was determined within 30 minutes by using a microplate reader set to 450 nm.

In a further assay the test system is TNFα. As to the kind of experiment: TNFα release by LPS-stimulated BV2 cells (ELISA). It counts as cell-based, murine. The conditions noted are these: BV-2 cells, ELISA, concentration-response. As to the method: First, 100 μl of supernatant was removed from Cell Plate and transferred to a Dilution Plate, which was then centrifuged at 216×g for 10 minutes to remove particulates. The dilution plate was either assayed immediately or aliquots were taken and stored at stored at ≤−20° C.; repeated freeze-thaw cycles were avoided.
Next, a standard curve was prepared by first pipetting 900 ul of Calibrator Diluent RD5K into the 700 pg/mL tube, followed by 200 μl of the appropriate calibrator diluent in the remaining tubes. The stock solution was used to produce a dilution. The resulting tubes were then thoroughly mixed. The Mouse TNFα Standard (700 pg/mL) served as the high standard, and the Calibrator Diluent RD5T served as the zero standard at 0 pg/ml.
Assay Diluent RD1-63 (50 ul) was then added to the center of each well and mixed before and during its use. Then, 50 ul of either standard, control, or sample was added to the center of each well, and covered with adhesive strip. The plate was then mixed for 1 minute and incubated for 2 hours at room temperature.
Each well was then aspirated and washed by filling each well with Wash Buffer (400 ul) five times. After the last wash, the remaining Wash Buffer was removed by aspirating or decanting. TNFα […] conjugate (100 ul) was then added to each well, covered with adhesive strip, incubated for 2 hours at room temperature, and washed and/or aspirated five times.
Substrate solution (100 ul) was then added to each well, incubated in the dark for 30 minutes at room temperature, followed by addition of 100 μl of Stop Solution and mixed. The optical density of each well was determined within 30 minutes by using a microplate reader set to 450 nm.
Plates were read on a Spectrostar Nano machine with built-in MARS data analysis at […].
For TNFα ELISA, the BV-2 cells were very responsive to low concentrations of LPS. A concentration range of 0.1 ng/ml to 1,000 ng/ml was tested. 0.3 ng/ml LPS produced enough TNFα release (8-10 fold above background) from these cells after 22 hours stimulation without saturating the linear range of the ELISA detection system. If higher LPS concentrations are used for stimulating BV-2 cells, a […] is advised to stay within the linear range of the detection system. The current TNFα protocol uses 10,000 cells per well in 96 well plate. A cell count titration can optimize S/B ratio. Miniaturization from 96 well to 384 well is also feasible with this assay.
The TNFα ELISA assay is described in Example 5. The IL-6 assay is described below.
A general note: In an ELISA, binding on a coated surface is turned into a signal by an enzyme label.

The next assay has as its system sepsis. As to the kind of experiment: Mouse model of sepsis / hyperinflammation (virus followed by LPS, as described in Wang). Conditions: mice, intravenous, various doses.
Assay [1] has as its system 12 human primary cell-based systems. The conditions noted are these: 5000 μM, comparator profile; cited from earlier work.

Protocol for sepsis: Briefly, mice are anesthetized with a ketamine/xylazine mixture. A virus, such as a coronavirus, influenza virus, rhinovirus, respiratory syncytial virus, metapneumovirus, adenovirus, or a boca virus, is administered. The virus may be administered intranasally dropwise.
Next, LPS diluted in a buffer, such as PBS, is injected intraperitoneally at specific doses.
To provide comparators for assessing the effects of TQS-168 and its analogs, groups of positive control mice are treated with one or more antibodies against pro-inflammatory cytokines of interest: anti-NK1.1 antibody (PK136; Bio X Cell) diluted in PBS is injected at 100 μg per injection (100 μL) retro-orbitally concurrently with each challenge; anti-IFNγ antibody (XMG1.2, Bio X Cell) is diluted in PBS and injected at 500 μg per injection (100 μL) retro-orbitally concurrently with each challenge; anti-IL6R (15A7.10 mg/kg; Bio X Cell), anti-TNFα (XT3.11, 500 μg per injection; Bio X Cell), anti-IFNαR (MAR1-5A3, 10 mg/kg; Bio X Cell), and anti-IL1β (B122, 500 μg per injection; Bio X Cell) are injected retro-orbitally. For a negative control, isotype antibody is injected retro-orbitally.
The pro-inflammatory cytokines can be measured using the ELISA assay described in Example 1.

Turning to `CC(=O)N(O)CCCCCNC(=O)CCC(=O)N(O)CCCCCNC(=O)CCC(=O)N(O)CCCCCN` [Deferoxamine, deferoxamine mesylate], in the assay with ALS, the disease onset entry is “delay” and the lifespan result is reported as “extend”.
Consider `CC(C)(C)c1ccc(-c2nc3ccncc3[nH]2)cc1` [TQS-234], for which the “LPS-stimulated IL-6 secretion” value with IL-6 was “decrease”. Besides, the “LPS-stimulated TNFα secretion” value with TNFα is given as “decrease”.
As to `CC(C)(C)c1ccc(-c2nc3c(F)cc(F)cc3[nH]2)cc1` [TQS-235], in the assay on sepsis, the “circulating concentrations of pro-inflammatory cytokines” value (“circulating concentrations” for short) is given as “effective in reducing” and the hyperinflammatory symptoms entry was “effective in reducing”. Moreover, the “LPS-stimulated IL-6 secretion” value in the assay on IL-6 is given as “decrease”. For the same molecule, the “LPS-stimulated TNFα secretion” value in the assay on TNFα is given as “decrease”.
On to `CC(C)(C)c1ccc(-c2nc3cc(C(F)(F)F)ccc3[nH]2)cc1` [TQS-236], for which the “LPS-stimulated IL-6 secretion” value with IL-6 was “decrease”. Also, in the assay on TNFα, the “LPS-stimulated TNFα secretion” value was “decrease”.
Turning to `CC(C)(C)c1cccc(-c2nc3c(F)cc(F)cc3[nH]2)c1` [TQS-237], in the assay on sepsis, the “circulating concentrations” value is on record as “effective in reducing” and the hyperinflammatory symptoms result is listed as “effective in reducing”. Also, the “LPS-stimulated IL-6 secretion” value in the assay with IL-6 was “decrease”. In the assay with TNFα, the “LPS-stimulated TNFα secretion” value is given as “decrease”.
Consider `CC(C)(C)c1ccc(-c2cn3ccccc3n2)cc1` [TQS-238], for which the “LPS-stimulated IL-6 secretion” value with IL-6 is “decrease”. Further, the “LPS-stimulated TNFα secretion” value in the assay with TNFα is given as “decrease”.
`[2H]c1c([2H])c([2H])c2[nH]c(-c3ccc(C(C)(C)C)cc3)nc2c1[2H]` [TQS-239]: the “LPS-stimulated IL-6 secretion” value in the assay on IL-6 is listed as “decrease”. Also, the “LPS-stimulated TNFα secretion” value in the assay on TNFα is given as “decrease”.
As to `CC(C)(C)c1ccc(-c2nc3c(F)c(F)c(F)cc3[nH]2)cc1` [TQS-240], in the assay on sepsis, the “circulating concentrations” value is recorded as “effective in reducing” and the hyperinflammatory symptoms result is “effective in reducing”. Moreover, the “LPS-stimulated IL-6 secretion” value in the assay on IL-6 was “decrease”. The “LPS-stimulated TNFα secretion” value in the assay on TNFα is recorded as “decrease”.
As to `CN(C)C(=N)N=C(N)N` [metformin, metformin hydrochloride], the “T-cell proliferation, IgG, TNFα, and IL-8” value in assay [1] was “inhibit”.
